# According to the supplement of paper PMC11061612:
# Assays:
# [1] = compound: CC1=CN2[C@@H](C1)C=NC3=CC(=C(C=C3C2=O)OC)OCCCCCOC4=C(C=C5C(=C4)N=C[C@@H]6CC(=CN6C5=O)C)OC [SG3199]; conditions: max 0.001 µM
# Method in brief: (§1)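 Cancer cell lines were dosed for 72 hours (final DMSO typically 0.2%) after 24 hours at 37°C and 5% CO2 in 1536-well plates containing 7.5 μl DMEM/F12 or RPMI with 10% FBS. Viability came from CellTiter-Glo 2.0 luminescence, scaled between blank-well and DMSO-well means, and dose responses were fitted to a two-parameter logistic curve with a non-linear mixed effects model. The single-agent IC50 was obtained from this fit.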
# [2] = compound: COc1cccc2c1C(=O)c1c(O)c3c(c(O)c1C2=O)C[C@@](O)(C(=O)CO)C[C@@H]3O[C@H]1C[C@H](N)[C@H](O)[C@H](C)O1 [Doxorubicin]; conditions: max 1 µM
# Method in brief: as §1
# [3] = compound: Cc1cc2ncnn2cc1Nc1ncc2c(n1)n(C1CCOCC1)c(=O)n2C [AZD7648]; conditions: max 10 µM
# Method in brief: as §1
# [4] = compound: O=C(c1cc(Cc2n[nH]c(=O)c3ccccc23)ccc1F)N1CCN(C(=O)C2CC2)CC1 [Olaparib]; conditions: max 10 µM
# Method in brief: as §1
# [5] = compound: Cc1c2c(nn1C)CSCc1cc(n(C)n1)CSc1cc(c3ccccc3c1)OCCCc1c(C(=O)O)n(C)c3c-2c(Cl)ccc13 [AZD5991]; conditions: max 1 µM
# Method in brief: as §1
# [6] = compound: CN(C)CCCOc1ccc(-c2ccc3ncc4c(c3c2)n(C2CCOCC2)c(=O)n4C)cn1 [AZD0156]
# Method in brief: as §1
# [7] = compound: C=CCn1c(=O)c2cnc(Nc3ccc(N4CCN(C)CC4)cc3)nc2n1-c1cccc(C(C)(C)O)n1 [AZD1775]
# Method in brief: as §1
# [8] = compound: COc1cc(Nc2ncc3c(n2)-c2ccc(Cl)cc2C(c2c(F)cccc2OC)=NC3)ccc1C(=O)O [Alisertib]; conditions: max 10 µM
# Method in brief: as §1
# [9] = compound: CCc1c2c(nc3ccc(O)cc13)-c1cc3c(c(=O)n1C2)COC(=O)[C@]3(O)CC [SN-38]; conditions: max 0.3 µM
# Method in brief: as §1
# [10] = compound: C[C@@H]1COCCN1C2=NC(=NC(=C2)C3(CC3)[S@](=N)(=O)C)C4=C5C=CNC5=NC=C4 [AZD6738]; conditions: max 10 µM
# Method in brief: as §1
# [11] = compound: Cn1cnc2c(F)c(Nc3ccc(Br)cc3Cl)c(C(=O)NOCCO)cc21 [Selumetinib]
# Method in brief: as §1
# [12] = compound: COc1cccc(OCCCN)c1-c1cc(Nc2cnc(C#N)cn2)n[nH]1 [Prexasertib]; conditions: max 1 µM
# Method in brief: as §1
# [13] = compound: CN(CC[C@H](CSC1=CC=CC=C1)NC2=C(C=C(C=C2)S(=O)(=O)NC(=O)C3=CC=C(C=C3)N4CCC(CC4)[C@H](C5=CC=CC=C5C6=CC=C(C=C6)Cl)O)S(=O)(=O)C(F)(F)F)CCO [AZD4320]; conditions: max 1 µM
# Method in brief: as §1
# [14] = compound: CCN(CCO)CCCOc1ccc2c(Nc3cc(CC(=O)Nc4cccc(F)c4)[nH]n3)ncnc2c1 [AZD2811]; conditions: max 1 µM
# Method in brief: as §1
# [15] = compound: C1CN(CCC1(C(=O)N[C@@H](CCO)C2=CC=C(C=C2)Cl)N)C3=NC=NC4=C3C=CN4 [Capivasertib]
# Method in brief: as §1
# [16] = compound: CC1(C)CCC(CN2CCN(c3ccc(C(=O)NS(=O)(=O)c4ccc(NCC5CCOCC5)c([N+](=O)[O-])c4)c(Oc4cnc5[nH]ccc5c4)c3)CC2)=C(c2ccc(Cl)cc2)C1 [Venetoclax]; conditions: max 1 µM
# Method in brief: as §1
# [17] = compound: Cc1nc(-c2cn3c(n2)-c2ccc(-c4cnn(C(C)(C)C(N)=O)c4)cc2OCC3)n(C(C)C)n1 [Taselisib]; conditions: max 10 µM
# Method in brief: as §1
# [18] = compound: CC(=O)Nc1cccc(-n2c(=O)n(C3CC3)c(=O)c3c(Nc4ccc(I)cc4F)n(C)c(=O)c(C)c32)c1 [Trametinib]; conditions: max 1 µM
# Method in brief: as §1
# [19] = compound: C[C@@H](Nc1cc(F)cc(F)c1)c1cc(C(=O)N(C)C)cc2c(=O)cc(N3CCOCC3)oc12 [AZD8186]; conditions: max 3 µM
# Method in brief: as §1
# [20] = compound: CC(C)n1c(=O)n(C)c2cnc3cc(F)c(-c4ccc(OCCCN5CCCCC5)nc4)cc3c21 [AZD1390]; conditions: max 0.3 µM
# Method in brief: as §1
# [21] = compound: CC1=C(C(=CC=C1)Cl)NC(=O)C2=CN=C(S2)NC3=CC(=NC(=N3)C)N4CCN(CC4)CCO [Dasatinib]; conditions: max 2 µM
# Method in brief: as §1
# [22] = compound: COc1cc2ncnc(Nc3ccc(F)c(Cl)c3)c2cc1OCCCN1CCOCC1 [Gefitinib]; conditions: max 10 µM
# Method in brief: as §1
# [23] = compound: C[C@@H](Oc1cc(-c2cnn(C3CCNCC3)c2)cnc1N)c1c(Cl)ccc(F)c1Cl [Crizotinib]; conditions: max 10 µM
# Method in brief: as §1
# [24] = compound: CS(=O)(=O)CCNCc1ccc(-c2ccc3ncnc(Nc4ccc(OCc5cccc(F)c5)c(Cl)c4)c3c2)o1 [Lapatinib]; conditions: max 10 µM
# Method in brief: as §1
# [25] = compound: C[C@@H](c1ccc2nccn2c1)n1nnc2ncc(-c3cnn(C)c3)nc21 [Savolitinib]; conditions: max 1 µM
# Method in brief: as §1
# [26] = compound: CC(=O)c1c(C)c2cnc(Nc3ccc(N4CCNCC4)cn3)nc2n(C2CCCC2)c1=O [Palbociclib]; conditions: max 10 µM
# Method in brief: as §1
# [27] = compound: COc1nnc2ccc(N3CCC(c4ccc(OCCN5CCN(C)C(=O)[C@H]5C)cc4)CC3)nn12 [AZD5153]; conditions: max 1 µM
# Method in brief: as §1
Cell Line,"IC50, cell viability 72 h [1]","IC50, cell viability 72 h [2]","IC50, cell viability 72 h [3]","IC50, cell viability 72 h [4]","IC50, cell viability 72 h [5]","IC50, cell viability 72 h ([6]; max 1 µM)","IC50, cell viability 72 h ([7]; max 1 µM)","IC50, cell viability 72 h [8]","IC50, cell viability 72 h [9]","IC50, cell viability 72 h [10]","IC50, cell viability 72 h ([11]; max 3 µM)","IC50, cell viability 72 h [12]","IC50, cell viability 72 h [13]","IC50, cell viability 72 h [14]","IC50, cell viability 72 h ([15]; max 3 µM)","IC50, cell viability 72 h [16]","IC50, cell viability 72 h [17]","IC50, cell viability 72 h [18]","IC50, cell viability 72 h [19]","IC50, cell viability 72 h [20]","IC50, cell viability 72 h [21]","IC50, cell viability 72 h ([6]; max 3 µM)","IC50, cell viability 72 h ([7]; max 3 µM)","IC50, cell viability 72 h [22]","IC50, cell viability 72 h [23]","IC50, cell viability 72 h [24]","IC50, cell viability 72 h ([11]; max 10 µM)","IC50, cell viability 72 h [25]","IC50, cell viability 72 h ([15]; max 10 µM)","IC50, cell viability 72 h [26]","IC50, cell viability 72 h [27]"
NMC-G1 (Low Grade Glioma),> 1 nM,> 1000 nM,> 10000 nM,> 10000 nM,> 1000 nM,> 1000 nM,> 1000 nM,> 10000 nM,> 300 nM,> 10000 nM,> 3000 nM,> 1000 nM,> 1000 nM,> 1000 nM,> 3000 nM,> 1000 nM,> 10000 nM,> 1000 nM,> 3000 nM,,,,,,,,,,,,
OVCAR-3 (Ovarian Carcinoma),> 1 nM,> 1000 nM,> 10000 nM,> 10000 nM,> 1000 nM,,,> 10000 nM,231 nM,> 10000 nM,,198 nM,> 1000 nM,> 1000 nM,,> 1000 nM,5630 nM,> 1000 nM,> 3000 nM,> 300 nM,> 2000 nM,> 3000 nM,1600 nM,> 10000 nM,> 10000 nM,> 10000 nM,> 10000 nM,> 1000 nM,> 10000 nM,> 10000 nM,475 nM
P30-OHK (B-Lymphoblastic Leukemia),> 1 nM,202 nM,> 10000 nM,> 10000 nM,835 nM,,,231 nM,9.37 nM,3470 nM,,20.5 nM,173 nM,37.9 nM,,> 1000 nM,6340 nM,> 1000 nM,> 3000 nM,> 300 nM,> 2000 nM,> 3000 nM,660 nM,> 10000 nM,2780 nM,> 10000 nM,> 10000 nM,> 1000 nM,> 10000 nM,> 10000 nM,63.3 nM
TUR (Acute Myeloid Leukemia),> 1 nM,626 nM,> 10000 nM,> 10000 nM,,,,> 10000 nM,22.9 nM,3440 nM,,16.4 nM,> 1000 nM,> 1000 nM,,> 1000 nM,1210 nM,> 1000 nM,> 3000 nM,> 300 nM,> 2000 nM,> 3000 nM,575 nM,> 10000 nM,> 10000 nM,> 10000 nM,> 10000 nM,> 1000 nM,2860 nM,> 10000 nM,> 1000 nM
